Patent EP3131902B1, “COMPOUNDS AS MODULATORS OF ROR GAMMA” (Boehringer Ingelheim International GmbH, priority 2014, dated 2015)

Biological target: T1, RORγ (Homo sapiens, UniProt P51449)
T1 construct: expressed in transfected cells; host or cells: HEK 293 cells, transiently transfected
T1 sequence (P51449 269-508 limits assumed): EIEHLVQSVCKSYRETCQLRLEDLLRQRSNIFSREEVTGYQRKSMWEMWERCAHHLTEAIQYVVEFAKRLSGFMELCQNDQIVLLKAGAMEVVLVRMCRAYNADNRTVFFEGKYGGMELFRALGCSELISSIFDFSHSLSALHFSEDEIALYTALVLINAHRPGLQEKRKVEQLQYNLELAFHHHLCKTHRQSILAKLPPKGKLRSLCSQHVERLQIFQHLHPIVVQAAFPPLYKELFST
Assay: Reporter Gene Assay (RGA): nuclear receptor transactivation assay, inhibition of RORγ transactivation of a luciferase reporter in transiently transfected HEK 293 cells
Type: cell-based
Settings: not given

| SMILES | IC50 |
| --- | --- |
| CCS(=O)(=O)c1ccc(CNc2nc3cnc(-c4c(C)ncnc4C4CC4)nc3n([C@@H](C)C(F)(F)F)c2=O)cc1 [Example 177] | 73 nM |
| CC[C@H](C)n1c(=O)c(NCc2ccc(S(N)(=O)=O)cn2)nc2cnc(-c3c(OC)ncnc3C3CC3)nc21 [Example 122] | 150 nM |
| CCS(=O)(=O)c1ccc(CNc2nc3cnc(-c4c(OC)ncnc4C4CC4)nc3n(CC(C)(C)F)c2=O)nc1 [Example 106] | 1150 nM |
| CCc1ncnc(C2CC2)c1-c1ncc2nc(NCc3ccc(S(C)(=O)=O)cc3)c(=O)n([C@H](C)CC)c2n1 [Example 191] | 86 nM |
| CCS(=O)(=O)N1C[C@@H]2C(CNc3nc4cnc(-c5c(C)ncnc5C5CC5)nc4n([C@@H](C)C4CC4)c3=O)[C@@H]2C1 (stereo partly shown) [Example 163] | 160 nM |
| CCS(=O)(=O)c1ccc(CNc2nc3cnc(-c4c(C5CC5)ncnc4C4CC4)nc3n(C3CC3)c2=O)cc1 [Example 38] | 1100 nM |

Same assay, conditions: read-out: RGA IC50

| SMILES | IC50 |
| --- | --- |
| CCS(=O)(=O)c1ccc(CNc2nc3cnc(-c4c(C)ncnc4C4CC4)nc3n([C@H](C)C(C)C)c2=O)nc1 [Example 67] | 370 nM |
| CC[C@@H](C)n1c(=O)c(NCc2ccc(S(N)(=O)=O)cn2)nc2cnc(-c3c(C)nc(N)nc3C3CC3)nc21 [Example 129] | 2500 nM |
| CCS(=O)(=O)c1ccc(CNc2nc3cnc(-c4c(OC)ncnc4C4CC4)nc3n(C3(C#N)CC3)c2=O)nc1 [Example 50] | 4400 nM |
| Cc1ncnc(C2CC2)c1-c1ncc2nc(NCc3ccc4c(c3)CCS4(=O)=O)c(=O)n([C@@H](C)C3CC3)c2n1 [Example 212] | 120 nM |
| CS(=O)(=O)c1ccc(CNc2nc3cnc(-c4c(C5CC5)ncnc4C4CC4)nc3n(C3CC3)c2=O)cc1 [Example 46] | 3000 nM |
| COc1ncnc(C2CC2)c1-c1ncc2nc(NCc3ccc(S(N)(=O)=O)cn3)c(=O)n(CC3CCC3)c2n1 [Example 116] | 300 nM |
| CCS(=O)(=O)N1CCC(CNc2nc3cnc(-c4c(OC)ncnc4C4CC4)nc3n([C@H](C)C3CC3)c2=O)CC1 [Example 76] | 1600 nM |
| CC[C@@H](C)n1c(=O)c(NCc2ncc(S(=O)(=O)CC)cn2)nc2cnc(-c3c(OC)ncnc3C3CC3)nc21 [Example 184] | 295 nM |
| CCS(=O)(=O)N1CCC(CNc2nc3cnc(-c4c(OC)ncnc4C4CC4)nc3n(C(C)C)c2=O)CC1 [Example 131] | 205 nM |
| CCS(=O)(=O)c1ccc(CNc2nc3cnc(-c4c(C)ncnc4C4CC4)nc3n(-c3ccccc3)c2=O)nc1 [Example 48] | 3800 nM |
| CNS(=O)(=O)c1ccc(CNc2nc3cnc(-c4c(OC)ncnc4C4CC4)nc3n(C3CCC3)c2=O)nc1 [Example 239] | 205 nM |
| COc1ncnc(C2CC2)c1-c1ncc2nc(NCc3ccc(S(N)(=O)=O)cn3)c(=O)n(CC(C)C)c2n1 [Example 255] | 285 nM |
| CCS(=O)(=O)c1ccc(CNc2nc3cnc(-c4c(C)ncnc4C4CC4)nc3n(CC(C)C)c2=O)nc1 [Example 252] | 325 nM |
| COc1ncnc(C2CC2)c1-c1ncc2nc(NCc3ccc(S(C)(=O)=O)cc3)c(=O)n([C@H]3CCC[C@@H]3OC)c2n1 [Example 230] | 270 nM |
| CCS(=O)(=O)c1ccc(CNc2nc3cnc(-c4c(C)ncnc4C4CC4)nc3n(CC(C)(C)F)c2=O)nc1 [Example 105] | 1600 nM |
| CC[C@@H](C)n1c(=O)c(NCc2ccc(S(=O)(=O)CC)cn2)nc2cnc(-c3c(C)ncnc3C3CC3)nc21 [Example 84] | 400 nM |
| CCS(=O)(=O)c1ccc(CNc2nc3cnc(-c4c(C)nc(N)nc4C4CC4)nc3n([C@@H](C)C3CC3)c2=O)nc1 [Example 217] | 160 nM |
| CO[C@H]1CCC[C@@H]1n1c(=O)c(NCc2ccc(S(C)(=O)=O)cc2)nc2cnc(-c3c(C)ncnc3C3CC3)nc21 [Example 229] | 530 nM |
| CCS(=O)(=O)c1ccc(CNc2nc3cnc(-c4c(OC)ncnc4C4CC4)nc3n([C@H]3CCC[C@@H]3C#N)c2=O)nc1 [Example 109] | 790 nM |
| COc1cc(C#N)ccc1CNc1nc2cnc(-c3c(C)ncnc3C3CC3)nc2n([C@@H](C)C2CC2)c1=O [Example 133] | 1040 nM |

| SMILES | IC50 |
| --- | --- |
| COC(=O)c1ccc(CNc2nc3cnc(-c4c(C)ncnc4C4CC4)nc3n([C@@H](C)C3CC3)c2=O)cc1 [Example 216] | 1380 nM |
| CCC(C)n1c(=O)c(NCc2ccc(S(C)(=O)=O)cc2)nc2cnc(-c3c(OC)ncnc3C3CC3)nc21 (stereo not shown) [Example 26] | 420 nM |
| Cc1ncnc(C2CC2)c1-c1ncc2nc(NCc3ccc(S(=O)(=O)CC#N)cc3)c(=O)n(C(C)C)c2n1 [Example 171] | 200 nM |
| COCCS(=O)(=O)N1CCC(CNc2nc3cnc(-c4c(OC)ncnc4C4CC4)nc3n([C@@H](C)C3CC3)c2=O)CC1 [Example 169] | 145 nM |
| CCS(=O)(=O)c1ccc(CNc2nc3cnc(-c4c(OC)ncnc4C4CC4)nc3n([C@H]3CCC[C@H]3C#N)c2=O)nc1 [Example 108] | 300 nM |
| COc1ncnc(C2CC2)c1-c1ncc2nc(NCc3ccc(S(C)(=O)=O)cn3)c(=O)n(C3CCC3)c2n1 [Example 241] | 310 nM |
| CCc1ncnc(C2CC2)c1-c1ncc2nc(NCc3ccc(S(=O)(=O)CC)cc3)c(=O)n([C@H]3CCOC3)c2n1 [Example 175] | 380 nM |
| CCS(=O)(=O)c1ccc(CNc2nc3cnc(-c4c(OC)ncnc4C4CC4)nc3n(C3(C)CC3(F)F)c2=O)nc1 (stereo not shown) [Example 36] | 880 nM |
| CCS(=O)(=O)N1CC2(CC(CNc3nc4cnc(-c5c(OC)ncnc5C5CC5)nc4n([C@@H](C)C4CC4)c3=O)C2)C1 [Example 152] | 470 nM |
| CCS(=O)(=O)c1ccc(CNc2nc3cnc(-c4c(C)ncnc4C4CC4)nc3n([C@H]3CCC[C@@H]3C#N)c2=O)nc1 [Example 112] | 920 nM |
| CCS(=O)(=O)N1CCC(CNc2nc3cnc(-c4c(C)ncnc4C4CC4)nc3n(C(C)C)c2=O)CC1 [Example 130] | 285 nM |
| CCS(=O)(=O)c1ccc(CNc2nc3cnc(-c4c(C5CC5)ncnc4C4CC4)nc3n([C@H](C)C(C)C)c2=O)nc1 [Example 25] | 410 nM |
| CCS(=O)(=O)c1ccc(CNc2nc3cnc(-c4c(OC)ncnc4C4CC4)nc3n([C@H]3C[C@@H]3C(F)(F)F)c2=O)nc1 (stereo in doubt) [Example 110] | 1350 nM |
| COc1ncnc(C2CC2)c1-c1ncc2nc(NCc3ccc(S(N)(=O)=O)cc3)c(=O)n(C(C)C)c2n1 [Example 151] | 255 nM |
| CCC(C)n1c(=O)c(NCc2ccc(S(C)(=O)=O)cc2)nc2cnc(-c3c(C)ncnc3C3CC3)nc21 (stereo not shown) [Example 14] | 310 nM |
| Cc1ncnc(C2CC2)c1-c1ncc2nc(NCc3ccc(S(C)(=N)=O)cc3)c(=O)n([C@@H](C)C3CCC3)c2n1 (stereo partly shown) [Example 232] | 180 nM |
| CCS(=O)(=O)c1ccc(CNc2nc3cnc(-c4c(OC)ncnc4C4CC4)nc3n(C3CCCC3=O)c2=O)nc1 (stereo not shown) [Example 120] | 420 nM |
| CNS(=O)(=O)c1ccc(CNc2nc3cnc(-c4c(C)ncnc4C4CC4)nc3n([C@@H](C)C3CC3)c2=O)cc1 [Example 135] | 240 nM |
| CC[C@H](C)n1c(=O)c(NCc2ccc(S(N)(=O)=O)cn2)nc2cnc(-c3c(C)ncnc3C3CC3)nc21 [Example 98] | 195 nM |
| Cc1ncnc(C2CC2)c1-c1ncc2nc(NCc3ccc(S(C)(=O)=O)cn3)c(=O)n(CC3CC3)c2n1 [Example 247] | 385 nM |

| SMILES | IC50 |
| --- | --- |
| Cc1ncnc(C2CC2)c1-c1ncc2nc(NCC3CCN(S(=O)(=O)CC#N)CC3)c(=O)n([C@@H](C)C3CC3)c2n1 [Example 165] | 157 nM |
| CCS(=O)(=O)c1ccc(CNc2nc3cnc(-c4c(C5CC5)ncnc4C4CC4)nc3n(C3CC3)c2=O)cn1 [Example 51] | 7600 nM |
| CC[C@@H](C)n1c(=O)c(NCc2ccc(S(N)(=O)=O)cn2)nc2cnc(-c3c(OC)ncnc3C3CC3)nc21 [Example 236] | 185 nM |
| CC(=O)N1CCC(CNc2nc3cnc(-c4c(C)ncnc4C4CC4)nc3n([C@@H](C)C3CC3)c2=O)CC1 [Example 166] | 1600 nM |
| COc1ncnc(C2CC2)c1-c1ncc2nc(NCc3ccc(S(C)(=O)=O)cn3)c(=O)n(C(C)C)c2n1 [Example 149] | 305 nM |
| CCS(=O)(=O)c1ccc(CNc2nc3cnc(-c4c(C)ncnc4C4CC4)nc3n([C@@H](C)C(C)C)c2=O)nc1 [Example 66] | 410 nM |
| CCS(=O)(=O)c1ccc(CNc2nc3cnc(-c4c(C)nc(N)nc4C4CC4)nc3n([C@H](C)C3CCC3)c2=O)nc1 [Example 233] | 155 nM |
| CCS(=O)(=O)N1CC[C@@H](CNc2nc3cnc(-c4c(C)ncnc4C4CC4)nc3n([C@@H](C)C3CC3)c2=O)C1 [Example 211] | 225 nM |
| CCS(=O)(=O)c1ccc(CNc2nc3cnc(-c4c(OC)ncnc4C4CC4)nc3n(CC(C)C)c2=O)cn1 [Example 154] | 295 nM |
| CCS(=O)(=O)c1ccc(CNc2nc3cnc(-c4c(OC)ncnc4C4CC4)nc3n(C3CC3)c2=O)cc1 [Example 43] | 2600 nM |
| CCc1ncnc(C2CC2)c1-c1ncc2nc(NCc3ccc(S(=O)(=O)CC)cn3)c(=O)n(C3CCCC3)c2n1 [Example 3] | 230 nM |
| CCS(=O)(=O)c1ccc(CNc2nc3cnc(-c4c(C5CC5)ncnc4C4CC4)nc3n(C3CCCC3)c2=O)nc1 [Example 13] | 300 nM |
| CCS(=O)(=O)c1ccc(CNc2nc3cnc(-c4c(C)ncnc4C4CC4)nc3n(C3CCCC3=O)c2=O)nc1 (stereo not shown) [Example 119] | 720 nM |
| CCS(=O)(=O)c1ccc(CNc2nc3cnc(-c4c(C5CC5)ncnc4C4CC4)nc3n([C@@H](C)C3CC3)c2=O)nc1 [Example 73] | 290 nM |
| CCCc1ncnc(C)c1-c1ncc2nc(NCc3ccc(S(=O)(=O)CC)cn3)c(=O)n(C(C)C)c2n1 [Example 172] | 440 nM |
| Cc1ncnc(C2CC2)c1-c1ncc2nc(NCc3ccc(S(C)(=N)=O)cc3)c(=O)n([C@@H](C)C3CC3)c2n1 (stereo partly shown) [Example 160] | 285 nM |
| CCS(=O)(=O)c1ccc(CNc2nc3cnc(-c4cnc(N)nc4C(C)C)nc3n(C(C)C)c2=O)nc1 [Example 140] | 730 nM |
| Cc1ncnc(C2CC2)c1-c1ncc2nc(NCc3ccc(S(C)(=O)=O)cn3)c(=O)n(C3CCC3)c2n1 [Example 242] | 395 nM |
